Data set [1] in a line: Cell viability used to select the allicin concentration. The format is cell-based. Particulars: dog, MDCK-chAbcb1 or MDCK-chAbcg2 cells.
For another data set, the system named is chicken BCRP. Put plainly: Bidirectional transport experiment in MDCK-chAbcg2 cells. The format is in vitro ADME. The note with it: net efflux ratio (NER), florfenicol 20 μM, without allicin.
The nature of data set [2]: Pharmacokinetic analyses of sulfadiazine and florfenicol in broilers. The note with it: florfenicol 20 mg/kg oral, 4-wk broilers. The format is in vivo.

A value given as a limit tells only on which side of the number the result lay.

`C=CCS[S+]([O-])CC=C` (stereo not drawn) [allicin, Allicin]: in data set [1], the viability at 5 μM is above 90%.

On to `CS(=O)(=O)c1ccc([C@@H](O)[C@@H](CF)NC(=O)C(Cl)Cl)cc1` [florfenicol], for which the efflux ratio at 20 μM with chicken BCRP was above 2. In data set [2] (Allicin (32 mg/kg) for 4 wk), this compound yielded a CLz of 1.13 ± 0.48 L/h/kg and a Vz of 7.61 ± 2.89 L/kg. In addition, in data set [2] (Control (no allicin)), the CLz was found to be 1.51 ± 0.49 L/h/kg and the Vz was found to be 8.57 ± 3.90 L/kg.

Source of the values: article PMC9189214 (Poultry Science, 2022).
